Data published in ChEMBL document CHEMBL4017521, “Direct NMR Probing of Hydration Shells of Protein Ligand Interfaces and Its Application to Drug Design” (J Med Chem, 2017).
Blank lines part the entries; values can stand above or below the molecule they belong to. Activity calls are given as the source filed them. The rule behind the calls is not given here.

Biological target: Bromodomain-containing protein 4 (Homo sapiens, UniProt O60885)
Assay: Inhibition of recombinant human N-terminal His6-tagged Brd4-BD1 expressed in Escherichia coli BL21(DE3) by LOGSY NMR titration method

SMILES: CNc1cc(N(C)Cc2ccccc2)nn2c(C)nnc12
- inhibition: Active

SMILES: COc1ccc(-c2ccc3nnc(C)n3n2)cc1OC
- IC50: 24 µM

SMILES: Cc1nnc2ccc(N(C)Cc3ccc(F)c(F)c3)nn12
- inhibition: Active

SMILES: CNc1cc(-c2ccccc2)nn2c(C)nnc12
- inhibition: Active

Further lines, results first:

- inhibition: Active
SMILES: Cc1nnc2ccc(-c3ccccc3)nn12

- inhibition: Active
SMILES: Cc1nnc2c(N)cc(-c3cnn(C)c3Oc3ccccc3)nn12

- IC50: 2 µM
SMILES: Cc1nnc2ccc(-c3cnn(C)c3Oc3ccccc3)nn12
